{"source": "patent US20260069657A1", "about": "“Haptoglobulin for Use in Treating or Preventing Exaggerated Erectile Response or Erectile Dysfunction” (CSL Behring AG, priority 2022, published 2026)", "type_in_all_cases": "in vivo, mouse", "key": {"eNOS": {"test_system": "eNOS", "experiment": "Western blot of penis homogenates, eNOS", "details": "SCD mice, haptoglobin 400 mg/kg s.c. 1 month; normalized to β-actin; P<0.05", "description": "(§1) All mice strains were originally purchased from Jackson Laboratories (Bar Harbor, ME). Characterization and breeding were performed at the Multidisciplinary Center for the Investigation of Biological Science in Laboratory Animals of University of Campinas. C57BL/6 male mice (wild-type, WT) and Berkeley transgenic SCD mice, aged 3 to 4 months-old, were used. Mice were housed three per cage on a 12 h light-dark cycle. SCD male mice were treated with treatment with haptoglobin (400 mg/kg, subcutaneous) or vehicle of Monday, Wednesday and Friday for a period of 1 month (24).\n(§2) Corpus cavernosum tissue was homogenized in lysis buffer and centrifuged at 12,000 g for 20 minutes at 4° C. Homogenates containing […] total proteins were run on 4-20% Tris-HCl gels (Bio-Rad Laboratories, Hercules, CA, USA) and transferred to a nitrocellulose membrane. Nonfat dry milk 5% (Bio-Rad) in Tris-buffered saline/Tween was used for 1 hour at 24° C. to block nonspecific binding sites. […] Densitometry was analyzed using the Image J Software (National Institute of Health, Bethesda-MD, USA). Quantified densitometry results were normalized to β-actin. Quantified densitometry results of eNOS phosphorylated at Ser1177 were normalized to total eNOS."}, "nNOS": {"test_system": "nNOS", "experiment": "Western blot of penis homogenates, nNOS", "details": "SCD mice, haptoglobin 400 mg/kg s.c. 1 month; normalized to β-actin", "description": "as §1, §2"}, "p-eNOS (Ser-1177)": {"test_system": "p-eNOS (Ser-1177)", "experiment": "Western blot of penis homogenates, p-eNOS (Ser-1177)", "details": "SCD mice, haptoglobin 400 mg/kg s.c. 1 month; normalized to eNOS; P<0.05", "description": "as §1, §2"}, "[1]": {"test_system": "corpus cavernosum strips from SCD mice", "experiment": "Concentration-response contraction curves to phenylephrine and KCl in cavernosal strips", "details": "SCD mice treated with haptoglobin 400 mg/kg s.c. 1 month, mean ± SEM", "description": "as §1\nStrips of mouse corpus cavernosum were mounted in a 7-ml organ system containing Krebs solution at 37° C., continuously bubbled with a mixture of 95% O2 and 5% CO2 (pH 7.4), and suspended between two metal hooks. One hook was connected to a force transducer and the other acted as a fixed attachment point. Tissues were allowed to equilibrate for 60 min under a resting tension of 2.5 mN. Isometric force was recorded using a PowerLab 400™ data acquisition system (Software LabChart, version 7.0, AD Instrument, MA, USA). Cumulative concentration-response curves were constructed for the muscarinic agonist acetylcholine (ACh; 10^−9 to 10^−5 M) and sodium nitroprusside (SNP; 10^−8 to 10^−4 M) in cavernosal strips pre-contracted with phenylephrine (10^−5 M). […]"}, "3-nitrotyrosine": {"test_system": "3-nitrotyrosine", "experiment": "Western blot of penis homogenates, 3-nitrotyrosine", "details": "SCD mice, haptoglobin 400 mg/kg s.c. 1 month, vs SCD-vehicle", "description": "as §1, §2"}, "ROCK2": {"test_system": "ROCK2", "experiment": "Western blot of penis homogenates, ROCK2", "details": "SCD mice, haptoglobin 400 mg/kg s.c. 1 month; normalized to β-actin", "description": "as §1, §2"}, "[2]": {"test_system": "corpus cavernosum strips from SCD mice", "experiment": "Concentration-response relaxation curves to ACh and SNP in cavernosal strips pre-contracted with phenylephrine", "description": "as §1\nStrips of mouse corpus cavernosum were mounted in a 7-ml organ system containing Krebs solution at 37° C., continuously bubbled with a mixture of 95% O2 and 5% CO2 (pH 7.4), and suspended between two metal hooks. One hook was connected to a force transducer and the other acted as a fixed attachment point. Tissues were allowed to equilibrate for 60 min under a resting tension of 2.5 mN. Isometric force was recorded using a PowerLab 400™ data acquisition system (Software LabChart, version 7.0, AD Instrument, MA, USA). Cumulative concentration-response curves were constructed for the muscarinic agonist acetylcholine (ACh; 10^−9 to 10^−5 M) and sodium nitroprusside (SNP; 10^−8 to 10^−4 M) in cavernosal strips pre-contracted with phenylephrine (10^−5 M). Cumulative concentration-response curves to the contractile agent phenylephrine (α1-adrenergic receptor agonist, 10^−8 to 3×10^−4 M) and KCl (3×10^−4 to 3×10^−1 M) were obtained in cavernosal strips. Nonlinear regression analysis to determine the pEC50 was carried out using GraphPad Prism (GraphPad Software, San Diego, CA, USA)."}, "ROCK1": {"test_system": "ROCK1", "experiment": "Western blot of penis homogenates, ROCK1", "details": "SCD mice, haptoglobin 400 mg/kg s.c. 1 month; compared to WT-vehicle", "description": "as §1, §2"}, "[3]": {"test_system": "NADPH oxidase subunit gp91phox", "experiment": "Western blot of penis homogenates, gp91phox", "details": "SCD mice, haptoglobin 400 mg/kg s.c. 1 month; normalized to β-actin", "description": "as §1, §2"}, "4-HNE": {"test_system": "4-HNE", "experiment": "Western blot of penis homogenates, 4-HNE", "details": "SCD mice, haptoglobin 400 mg/kg s.c. 1 month, vs SCD-vehicle", "description": "as §1, §2"}, "cGMP": {"test_system": "cGMP", "experiment": "Determination of basal cGMP levels in penis (enzyme immunoassay)", "details": "SCD mice, haptoglobin treatment, vs SCD-vehicle, P<0.05", "description": "as §1\nQuantitative assays for cGMP were performed using a commercial enzyme immunoassay kit (Cayman Chemical Cyclic GMP EIA kit, Ann Arbor, MI, USA). For penile cGMP content, frozen penile tissue was homogenized in 5% trichloroacetic acid and centrifuged. TCA was extracted from the supernatant with three washes of water-saturated ether. cGMP was expressed as pmol/mg tissue."}, "PDE5": {"test_system": "PDE5", "experiment": "Western blot of penis homogenates, PDE5", "details": "SCD mice, haptoglobin 400 mg/kg s.c. 1 month, vs SCD-vehicle", "description": "as §1, §2"}, "[4]": {"test_system": "corpus cavernosum strips from SCD mice", "experiment": "Electrical-field stimulation (EFS)-induced nitrergic relaxations of cavernosal strips", "details": "2-32 Hz, guanethidine and atropine pretreated strips, haptoglobin 400 mg/kg s.c. 1 month", "description": "as §1\nEFS was applied on cavernosal strips placed between two platinum ring electrodes connected to a Grass S88 stimulator (Astro-Med Industrial Park, RI, USA). EFS was conducted at 50 V, 1 ms pulse width and trains of stimuli lasting 10 sec at varying frequencies. In order to study the nitrergic cavernosal relaxations, tissues were pretreated with guanethidine (3×10^−5 M; to deplete the catecholamine stores of adrenergic fibers) and atropine (10^−6 M; to produce muscarinic antagonism) for 30 minutes prior to pre-contraction with phenylephrine (10^−5 M). When a stable contraction level was attained, a series of EFS-induced relaxations were constructed (2-32 Hz)."}}}
{"substance": "Haptoglobin: Human haptoglobin (Hp) solution, a kind gift from CSL Behring; plasma glycoprotein that binds free hemoglobin", "values": [{"measurement": "Protein level of eNOS in penis", "setting": "eNOS", "result": "normalized"}, {"measurement": "Protein expression of nNOS in penis", "setting": "nNOS", "result": "not modified"}, {"measurement": "Protein level of p-eNOS (Ser-1177) in penis", "setting": "p-eNOS (Ser-1177)", "result": "normalized"}, {"measurement": "Emax of KCl-induced contraction", "setting": "[1]; KCl, receptor-independent", "result": "0.30±0.07", "unit": "mN"}, {"measurement": "Emax of phenylephrine-induced contraction", "setting": "[1]; phenylephrine 10^-8 to 3x10^-4 M", "result": "0.79±0.11", "unit": "mN"}, {"measurement": "Reduction of protein level of 3-nitrotyrosine in penile tissue", "setting": "3-nitrotyrosine", "result": "approximately 27%"}, {"measurement": "Protein levels of ROCK2 in penis", "setting": "ROCK2", "result": "fully restored"}, {"measurement": "Effect of treatment on raised SNP pEC50 value", "setting": "[2]; SCD mice, haptoglobin 400 mg/kg s.c., P<0.05", "result": "reversed"}, {"measurement": "Effect of treatment on Emax produced by SNP", "setting": "[2]; SCD mice, haptoglobin 400 mg/kg s.c., vs SCD-vehicle", "result": "reduced"}, {"measurement": "Effect of treatment on Emax values of ACh", "setting": "[2]; SCD mice, haptoglobin 400 mg/kg s.c., vs SCD-vehicle, P<0.05", "result": "reduced"}, {"measurement": "Effect on potency (pEC50) for ACh among the groups", "setting": "[2]; WT-vehicle, SCD-vehicle, SCD-haptoglobin", "result": "No significant differences"}, {"measurement": "pEC50 of ACh relaxation curve, SCD-Haptoglobin", "setting": "[2]; agonist ACh, cavernosal strips from SCD mice treated with haptoglobin 400 mg/kg s.c. Mon/Wed/Fri for 1 month, mean ± SEM", "result": 7.12}, {"measurement": "Emax (%) of ACh relaxation curve, SCD-Haptoglobin", "setting": "[2]; agonist ACh, relative to phenylephrine (10^-5 M) contraction = 100%, SCD mice, haptoglobin 400 mg/kg s.c. 3x/week, 1 month, mean ± SEM", "result": "42 ± 6", "unit": "%"}, {"measurement": "pEC50 of SNP relaxation curve, SCD-Haptoglobin", "setting": "[2]; agonist SNP, cavernosal strips from SCD mice treated with haptoglobin 400 mg/kg s.c. Mon/Wed/Fri for 1 month, mean ± SEM", "result": 6.08}, {"measurement": "Emax (%) of SNP relaxation curve, SCD-Haptoglobin", "setting": "[2]; agonist SNP, relative to phenylephrine (10^-5 M) contraction = 100%, SCD mice, haptoglobin 400 mg/kg s.c. 3x/week, 1 month, mean ± SEM", "result": "78 ± 4", "unit": "%"}, {"measurement": "Protein expression of ROCK1 in penis", "setting": "ROCK1", "result": "not modified"}, {"measurement": "Protein levels of gp91phox in penis", "setting": "[3]", "result": "fully restored"}, {"measurement": "Reduction of protein level of 4-HNE in penile tissue", "setting": "4-HNE", "result": "~28", "unit": "%"}, {"measurement": "Increase of basal cGMP levels in penis", "setting": "cGMP", "result": "approximately 72%"}, {"measurement": "Increase of protein level of PDE5 in penis", "setting": "PDE5", "result": "approximately 52%"}, {"measurement": "Effect of treatment on EFS-induced relaxant responses", "setting": "[4]", "result": "reduced"}]}
